# Experimental data: ChEMBL document CHEMBL5233255, “Natural and nature-inspired stilbenoids as antiviral agents” (Eur J Med Chem, 2020)
# Key:
# [1] = Selectivity index, ratio of CC50 for cytotoxicity against MDCK cells to IC50 for influenza A virus A/Guangdong/243/72 ([…]) infected in MDCK cells; assay type: toxicity, cell-based; settings: dog, read-out: Ratio CC50/IC50
# Influenza A virus [2] = assay: Antiviral activity against influenza A virus A/Guangdong/243/72 ([…]) infected in MDCK cells assessed as inhibition of virus-induced cytopathic effect; assay type: functional, organism-based
# [3] = Inhibition of recombinant HIV-1 integrase catalysed strand transfer activity measured after 60 mins by electrochemiluminescent plate-based assay; parameters: species or system Human immunodeficiency virus 1
# [4] = Inhibition of HIV-1 integrase catalysed 3' processing activity by densitometric analysis; parameters: species or system Human immunodeficiency virus 1
# [5] = test system: Human immunodeficiency virus 1; assay: Antiviral activity against HIV-1 infected in HEK293T cells; assay type: functional, organism-based; settings: Human immunodeficiency virus 1, HEK-293T
# [6] = Selectivity index, ratio of CC50 for cytotoxicity against human MT4 cells expressing eGFP under control of HIV-1 LTR promoter sequence to EC50 for antiviral activity against HIV-1 infected in human MT4 cells expressing eGFP under control of HIV-1 LTR promoter sequence; assay type: toxicity, cell-based; settings: read-out: Ratio CC50/EC50
# [7] = test system: Human immunodeficiency virus 1; assay: Antiviral activity against VSV pseudo-typed HIV-1 infected in human MT4 cells expressing eGFP under control of HIV-1 LTR promoter sequence; assay type: functional, organism-based; settings: Human immunodeficiency virus 1, MT4
# [8] = Cytotoxicity against human MT4 cells expressing eGFP under control of HIV-1 LTR promoter sequence; assay type: toxicity, cell-based
# [9] = Cytotoxicity against HEK293T cells; assay type: toxicity, cell-based, HEK-293T; settings: human, read-out: TC50 (the source's name)
# [10] = Cytotoxicity against human Huh-7 cells assessed as reduction in cell viability incubated for 3 days by MTT assay; assay type: toxicity, cell-based; settings: time 3 day
# dengue virus type 2 = assay: Antiviral activity against Dengue virus 2 New Guinea C infected in human Huh-7 cells assessed as reduction in virus induced cytopathic effect incubated for 3 days by trypan blue staining based assay; assay type: functional, organism-based; settings: Huh-7, 72 h
# [11] = Selectivity index, ratio of CC50 for cytotoxicity against human Huh-7 cells to EC50 for Dengue virus 2 New Guinea C infected in human Huh-7 cells; assay type: toxicity, cell-based; settings: read-out: Ratio CC50/EC50
# [12] = Cytotoxicity against human A549 cells assessed as reduction in cell viability by Alamar blue assay; assay type: toxicity, cell-based
# Influenza A virus [13] = assay: Antiviral activity against influenza A virus A/PR/8/34 (H1N1) infected in human A549 cells assessed as inhibition of RANTES production incubated for 48 hrs by ELISA; assay type: functional, organism-based; settings: A549, 48 h
# [14] = Therapeutic index, ratio of CC50 for cytotoxicity against human C8166 cells to EC50 for antiviral activity against HIV-1 infected in C8166 cells; assay type: toxicity, cell-based; settings: read-out: Ratio CC50/EC50
# [15] = Cytotoxicity against human C8166 cells assessed as inhibition of cell growth by MTT assay; assay type: toxicity, cell-based
# [16] = test system: Human immunodeficiency virus 1; assay: Antiviral activity against HIV-1 infected in human C8166 cells assessed as inhibition of viral replication; assay type: functional, organism-based; settings: Human immunodeficiency virus 1, C8166
smiles,measurement,setting,value
COc1cc(/C=C/c2cc(O)cc(O)c2)ccc1O,selectivity ratio,[1],8.99
same,IC50,Influenza A virus [2],4.28 mg/L
Nc1ccc(/C=C/c2ccc(N)cc2S(=O)(=O)O)c(S(=O)(=O)O)c1,IC50,[3],> 111 µM
same,IC50,[4],> 111 µM
Oc1cc(O)cc(-c2ccc3cc(O)ccc3c2)c1,EC50,[5],> 75 µM
O=C(/C=C/c1ccc(O)cc1)c1cc(O)cc(O)c1,EC50,[5],> 75 µM
Oc1ccc(-n2cc(-c3cc(O)cc(O)c3)nn2)cc1,EC50,[5],> 75 µM
O=S(=O)(O)c1cc(/N=N/c2cc(S(=O)(=O)O)c3ccccc3c2O)ccc1/C=C/c1ccc(/N=N/c2cc(S(=O)(=O)O)c3ccccc3c2O)cc1S(=O)(=O)O,selectivity ratio,[6],19.2
same,IC50,[3],0.18 µM
same,IC50,[4],0.32 µM
same,EC50,[7],3.07 µM
same,CC50,[8],59 µM
O=[N+]([O-])c1ccc(/C=C/c2ccc([N+](=O)[O-])cc2S(=O)(=O)O)c(S(=O)(=O)O)c1,IC50,[3],> 111 µM
same,IC50,[4],> 111 µM
Oc1cc(O)cc(-c2ccc(-c3ccncc3)cc2)c1,EC50,[5],> 100 µM
Oc1cc(O)cc(-c2ccc3cnccc3c2)c1,EC50,[5],> 75 µM
Oc1ccc(-c2c(-c3cc(O)cc(O)c3)oc3ccccc23)cc1,EC50,[5],35 µM
same,CC50,[9],84.8 µM
Oc1ccc(-c2c(-c3cc(O)cc(O)c3)sc3ccccc23)cc1,EC50,[5],34.4 µM
same,CC50,[9],131 µM
Oc1ccc(-c2oc3ccccc3c2-c2cc(O)cc(O)c2)cc1,EC50,[5],65.1 µM
same,CC50,[9],108 µM
Oc1ccc(-c2sc3ccccc3c2-c2cc(O)cc(O)c2)cc1,EC50,[5],45.1 µM
same,CC50,[9],118 µM
Oc1ccc(-c2ncc(-c3cc(O)cc(O)c3)cn2)cc1,EC50,[5],> 75 µM
Oc1ccc(-c2cnc(-c3cc(O)cc(O)c3)nc2)cc1,EC50,[5],> 75 µM
Oc1ccc(-c2cc(-c3cc(O)cc(O)c3)on2)cc1,EC50,[5],> 75 µM
COc1cc(/C(C#N)=C\c2cc3ccccc3s2)cc(OC)c1OC,CC50 at 72 h,[10],1.9 µM
same,EC50,dengue virus type 2,0.00722 µM
same,selectivity ratio,[11],263
Oc1ccc(-c2ccc(-c3cc(O)cc(O)c3)cc2)cc1,EC50,[5],8.8 µM
same,CC50,[9],179 µM
O=Cc1ccc2c(c1)C(c1cc(O)cc3c1[C@H](c1cc(O)cc(O)c1)[C@@H](c1ccc(O)cc1)O3)[C@H](c1ccc(O)cc1)O2 (some centres not stated),CC50,[12],> 400 µM
same,EC50,Influenza A virus [13],8.48 µM
O=S(=O)([O-])O[C@H]1[C@H](O)[C@@H](O)[C@H](Oc2cc(O)cc(/C=C\c3ccc(O)cc3)c2)O[C@@H]1CO.[Na+],selectivity ratio,[14],1.17
same,CC50,[15],98.8 mg/L
same,EC50,[16],84.8 mg/L
O=S(=O)([O-])Oc1cc(/C=C/c2ccc(O)cc2)cc(O[C@@H]2O[C@H](CO)[C@@H](O)[C@H](O)[C@H]2O)c1.[Na+],selectivity ratio,[14],5.87
same,CC50,[15],527 mg/L
same,EC50,[16],89.7 mg/L
COc1cc([C@H]2Oc3c(ccc(/C=C/c4cc(O)cc(O)c4)c3OC)[C@@H]2c2cc(O)cc(O)c2)ccc1O,selectivity ratio,[1],9.6
same,IC50,Influenza A virus [2],12 mg/L
